Counter-ions that a name gives are not always drawn.
Tests used:
[1] = system: Aspergillus-induced airway inflammation model; test: Inhibitory effect on Aspergillus-induced airway inflammation model; assay type: in vivo; settings: mice; for inhibition in vivo at 10000 µg/mL, 100 mg/kg: Mus musculus, Eosinophil, po, 240 h, 10 mg/mL suspension at 10 mL/kg twice a day Day 0 to Day 9, BALF collected at Day 10, read-out: Inhibition rate on count of invasive eosinophil in BALF (%)
Experimental: Aspergillus fumigatus extracts (Greer laboratories, Inc.) were adjusted to 400 μg/mL with PBS. The Aspergillus fumigatus solutions thus prepared were administered to mice as nasal drops (50 μL) on Day 0, Day 1, Day 7 and Day 8. The nasal drop was administered one hour after the administration of test compounds in the morning. The test compound was administered twice a day in the morning and evening of Day 0 to Day 9. The test compound was suspended in 0.5% methylcellulose at 10 mg/mL, and orally administered at the dosage of 10 mL/kg. The bronchoalveolar lavage fluid (BALF) was collected at Day 10, and the total white blood cell count in BALF was measured using Celltac (NIHON KOHDEN). The ratio of eosinophil in total white blood cell was calculated using ADVIA 120 (Siemens Healthcare Diagnostics), and the ratio was multiplied by the total white blood cell count to determine the eosinophil count in BALF. The inhibition rate of the test compound was determined, assuming the inhibitory ratio in the treatment with Aspergillus fumigatus extract and 0.5% methylcellulose as 0% and the inhibitory ratio in the treatment without Aspergillus fumigatus extract but with 0.5% methylcellulose as 100%.

JAK1 = target: T1, JAK1 (Homo sapiens, UniProt P23458); test: JAK tyrosine kinase inhibitory activity in the presence of 1 mM ATP (ELISA), JAK1; assay type: biochemical
T1 construct: purchased Carna Biosciences, Inc
T1 sequence (P23458 whole entry): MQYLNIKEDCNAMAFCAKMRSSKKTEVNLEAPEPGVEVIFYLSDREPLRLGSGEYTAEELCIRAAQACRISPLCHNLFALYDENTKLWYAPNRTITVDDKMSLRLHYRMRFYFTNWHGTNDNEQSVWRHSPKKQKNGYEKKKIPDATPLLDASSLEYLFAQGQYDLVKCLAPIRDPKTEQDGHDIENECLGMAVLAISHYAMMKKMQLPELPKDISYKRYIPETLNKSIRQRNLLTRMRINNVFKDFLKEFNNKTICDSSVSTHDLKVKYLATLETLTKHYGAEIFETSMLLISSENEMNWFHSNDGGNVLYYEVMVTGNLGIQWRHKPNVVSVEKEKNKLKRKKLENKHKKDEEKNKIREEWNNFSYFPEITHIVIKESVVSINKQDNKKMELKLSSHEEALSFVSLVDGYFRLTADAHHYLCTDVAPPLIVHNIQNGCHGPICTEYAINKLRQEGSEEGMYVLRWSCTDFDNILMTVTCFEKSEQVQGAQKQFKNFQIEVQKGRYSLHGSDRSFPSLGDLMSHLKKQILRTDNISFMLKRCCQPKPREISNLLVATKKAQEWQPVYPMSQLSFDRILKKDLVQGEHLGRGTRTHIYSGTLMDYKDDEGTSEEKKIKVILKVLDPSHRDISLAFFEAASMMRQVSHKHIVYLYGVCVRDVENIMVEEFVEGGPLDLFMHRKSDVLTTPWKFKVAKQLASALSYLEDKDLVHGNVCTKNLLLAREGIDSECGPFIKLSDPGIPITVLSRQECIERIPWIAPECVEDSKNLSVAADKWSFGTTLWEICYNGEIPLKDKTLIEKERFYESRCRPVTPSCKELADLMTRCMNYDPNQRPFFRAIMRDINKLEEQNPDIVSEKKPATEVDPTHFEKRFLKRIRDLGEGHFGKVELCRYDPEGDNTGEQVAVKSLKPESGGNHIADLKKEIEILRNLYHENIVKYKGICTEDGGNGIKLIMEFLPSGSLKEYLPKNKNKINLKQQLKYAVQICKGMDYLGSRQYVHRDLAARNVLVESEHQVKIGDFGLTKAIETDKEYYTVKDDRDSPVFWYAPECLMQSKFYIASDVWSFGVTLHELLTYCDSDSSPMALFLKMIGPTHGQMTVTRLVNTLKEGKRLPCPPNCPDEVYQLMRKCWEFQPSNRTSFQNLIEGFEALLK
Procedure, shortened: (§1)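 Kinase reactions ran on streptavidin-coated plates in 15 mM Tris-HCl pH 7.5, 0.01% Tween-20, 1 mM DTT, 30 °C for 1 h. Enzyme was prediluted to 7.5 nM (JAK1) or 0.75 nM (JAK2, JAK3) before addition. Phosphotyrosine was detected with HRP anti-pTyr antibody and TMB at A450.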

JAK3 = target: T2, JAK3 (Homo sapiens, UniProt P52333); test: JAK tyrosine kinase inhibitory activity in the presence of 1 mM ATP (ELISA), JAK3; assay type: biochemical
T2 construct: purchased Carna Biosciences, Inc
T2 sequence (P52333 1-1124): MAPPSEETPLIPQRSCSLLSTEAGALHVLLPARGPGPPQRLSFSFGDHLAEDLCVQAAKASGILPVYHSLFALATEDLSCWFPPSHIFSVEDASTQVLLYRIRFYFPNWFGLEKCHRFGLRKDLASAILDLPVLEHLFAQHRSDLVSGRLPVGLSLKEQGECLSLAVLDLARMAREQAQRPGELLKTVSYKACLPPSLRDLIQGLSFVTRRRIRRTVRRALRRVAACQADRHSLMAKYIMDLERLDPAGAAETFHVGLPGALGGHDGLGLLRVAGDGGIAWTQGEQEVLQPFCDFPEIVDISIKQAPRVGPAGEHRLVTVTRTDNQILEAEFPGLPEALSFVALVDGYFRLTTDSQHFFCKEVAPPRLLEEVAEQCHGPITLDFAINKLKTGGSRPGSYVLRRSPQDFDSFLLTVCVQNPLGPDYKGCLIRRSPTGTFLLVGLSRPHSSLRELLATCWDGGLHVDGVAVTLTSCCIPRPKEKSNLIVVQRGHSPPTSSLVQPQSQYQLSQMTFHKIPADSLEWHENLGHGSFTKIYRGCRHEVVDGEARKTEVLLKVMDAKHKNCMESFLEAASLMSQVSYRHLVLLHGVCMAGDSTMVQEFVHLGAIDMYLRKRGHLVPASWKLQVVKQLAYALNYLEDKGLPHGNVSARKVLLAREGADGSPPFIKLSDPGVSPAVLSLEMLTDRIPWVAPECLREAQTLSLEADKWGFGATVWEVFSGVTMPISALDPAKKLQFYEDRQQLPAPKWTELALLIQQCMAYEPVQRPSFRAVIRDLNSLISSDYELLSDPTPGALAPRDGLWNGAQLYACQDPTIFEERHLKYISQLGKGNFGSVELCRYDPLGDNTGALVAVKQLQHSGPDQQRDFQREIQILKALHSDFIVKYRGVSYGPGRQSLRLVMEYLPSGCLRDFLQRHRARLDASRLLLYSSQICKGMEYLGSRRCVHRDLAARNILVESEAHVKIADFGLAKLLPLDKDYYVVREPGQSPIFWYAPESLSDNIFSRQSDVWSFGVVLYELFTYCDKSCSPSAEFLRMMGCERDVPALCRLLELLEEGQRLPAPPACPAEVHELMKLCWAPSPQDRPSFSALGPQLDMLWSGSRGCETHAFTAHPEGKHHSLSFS
Procedure, shortened: as §1

JAK2 = target: T3, JAK2 (Homo sapiens, UniProt O60674); test: JAK tyrosine kinase inhibitory activity in the presence of 1 mM ATP (ELISA), JAK2; assay type: biochemical
T3 construct: purchased Carna Biosciences, Inc
T3 sequence (O60674 whole entry): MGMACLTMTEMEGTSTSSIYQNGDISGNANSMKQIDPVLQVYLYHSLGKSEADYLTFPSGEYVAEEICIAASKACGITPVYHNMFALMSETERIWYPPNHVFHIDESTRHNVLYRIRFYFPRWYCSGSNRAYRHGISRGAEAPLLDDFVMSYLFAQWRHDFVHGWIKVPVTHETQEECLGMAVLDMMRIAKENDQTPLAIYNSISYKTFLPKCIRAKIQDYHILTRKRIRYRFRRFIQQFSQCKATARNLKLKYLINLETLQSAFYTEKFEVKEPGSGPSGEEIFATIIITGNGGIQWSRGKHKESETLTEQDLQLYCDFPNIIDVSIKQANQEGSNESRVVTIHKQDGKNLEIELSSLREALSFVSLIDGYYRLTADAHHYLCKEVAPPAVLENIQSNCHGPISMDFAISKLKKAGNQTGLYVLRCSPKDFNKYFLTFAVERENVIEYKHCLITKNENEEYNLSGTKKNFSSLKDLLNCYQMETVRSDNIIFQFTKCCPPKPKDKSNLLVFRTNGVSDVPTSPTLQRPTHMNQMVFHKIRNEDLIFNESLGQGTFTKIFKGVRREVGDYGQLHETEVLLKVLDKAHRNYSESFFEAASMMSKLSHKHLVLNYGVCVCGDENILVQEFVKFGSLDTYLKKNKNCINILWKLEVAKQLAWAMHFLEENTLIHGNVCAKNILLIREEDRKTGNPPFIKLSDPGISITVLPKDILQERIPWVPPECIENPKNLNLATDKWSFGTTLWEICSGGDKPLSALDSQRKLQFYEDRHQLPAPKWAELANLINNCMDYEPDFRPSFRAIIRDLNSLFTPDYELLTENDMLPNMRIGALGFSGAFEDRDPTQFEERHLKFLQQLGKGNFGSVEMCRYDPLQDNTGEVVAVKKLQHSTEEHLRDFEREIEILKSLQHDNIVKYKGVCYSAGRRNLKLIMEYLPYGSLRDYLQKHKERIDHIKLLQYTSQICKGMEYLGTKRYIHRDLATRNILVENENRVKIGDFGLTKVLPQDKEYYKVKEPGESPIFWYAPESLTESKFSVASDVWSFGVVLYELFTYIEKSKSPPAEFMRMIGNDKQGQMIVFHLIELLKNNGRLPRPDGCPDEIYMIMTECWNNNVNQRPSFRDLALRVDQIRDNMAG
Procedure, shortened: as §1

Row | SMILES | inhibition in vivo at 10000 µg/mL, 100 mg/kg [1] [%] | IC50 (JAK1) [nM] | IC50 (JAK3) [nM] | IC50 (JAK2) [nM] | Inhibition rate on count of invasive eosinophil in BALF (%) ([1]; oral, 10 mg/mL suspension at 10 mL/kg twice a day Day 0 to Day 9, BALF collected at Day 10)
1 | CCC(CC)Nc1cc(C(=O)N2CCC(O)CC2)nc(-c2cnn3ccsc23)n1 [Example 81, (4-Hydroxypiperidin-1-yl) [6-(pentan-3-ylamino)-2-(pyrazolo[5,1-b][1,3]thiazol-7-yl)pyrimidin-4-yl]methanone hydrochloride] | 43 | 1600 | 3300 | 2200 | 
2 | CC(C)OC(=O)NC1CCN(C(=O)c2cc(N[C@@H](C)C3CC3)nc(-c3cnn4ccsc34)n2)CC1 [Example 41, Propan-2-yl (1-{[6-{[(1S)-1-cyclopropylethyl]amino}-2-(pyrazolo[5,1-b][1,3]thiazol-7-yl)pyrimidin-4-yl]carbonyl}piperidin-4-yl)carbamate] | 51 | 96 | > 10000 | 2700 | 
3 | C[C@H](Nc1cc(C(=O)N2CCC(NC(=O)OC(C)(C)CF)CC2)nc(-c2cnn3ccsc23)n1)C1CC1 [Example 21, 1-Fluoro-2-methylpropan-2-yl (1-{[6-{[(1S)-1-cyclopropylethyl]amino}-2-(pyrazolo[5,1-b][1,3]thiazol-7-yl)pyrimidin-4-yl]carbonyl}piperidin-4-yl)carbamate hydrochloride] | 47 | 230 | > 10000 | 2200 | 
4 | C[C@@H](Nc1cc(C(=O)N2CCC(NC(=O)OCC(F)F)CC2)nc(-c2cnn3ccsc23)n1)C(C)(C)C [Example 97, 2,2-Difluoroethyl (1-{[6-{[(2R)-3,3-dimethylbutan-2-yl]amino}-2-(pyrazolo[5,1-b][1,3]thiazol-7-yl)pyrimidin-4-yl]carbonyl}piperidin-4-yl)carbamate hydrochloride] | 43 | 210 | 2700 | 1300 | 
5 | C[C@H](Nc1cc(C(=O)N2CCC(NC(=O)C3CC3)CC2)nc(-c2cnn3ccsc23)n1)C1CC1 [Example 1, N-(1-{[6-{[(1S)-1-Cyclopropylethyl]amino}-2-(pyrazolo[5,1-b][1,3]thiazol-7-yl)pyrimidin-4-yl]carbonyl}piperidin-4-yl)cyclopropanecarboxamide hydrochloride] | 43 | 52 | 3400 | 3400 | 
6 | C[C@@H](Nc1cc(C(=O)N2CCC(O)CC2)nc(-c2cnn3ccsc23)n1)C(C)(C)C [Example 62, [6-{[(2R)-3,3-Dimethylbutan-2-yl]amino}-2-(pyrazolo[5,1-b][1,3]thiazol-7-yl)pyrimidin 4 yl](4-hydroxypiperidin-1-yl)methanone hydrochloride] | 36 | 10 | 1100 | 1000 | 
7 | CCOC(=O)NC1CCN(C(=O)c2cc(N[C@@H](C)C3CC3)nc(-c3cnn4ccsc34)n2)CC1 [Example 28, Ethyl (1-{[6-{[(1S)-1-cyclopropylethyl]amino}-2-(pyrazolo[5,1-b][1,3]thiazol-7-yl)pyrimidin-4-yl]carbonyl}piperidin-4-yl)carbamate] | 52 | 120 | > 10000 | 2100 | 
8 | CC[C@H](C)Nc1cc(C(=O)N2CCC(NC(=O)OC)CC2)nc(-c2cnn3ccsc23)n1 [Example 125, Methyl [1-({6-[(2S)-butan-2-ylamino]-2-(pyrazolo[5,1-b][1,3]thiazol-7-yl)pyrimidin-4-yl}carbonyl)piperidin-4-yl]carbamate hydrochloride] | 35 | 210 | > 10000 | 4700 | 
9 | COC(=O)NC1CCN(C(=O)c2cc(N[C@H](C)C(C)C)nc(-c3cnn4ccsc34)n2)CC1 [Example 24, Methyl (1-{[6-{[(2R)-3-methylbutan-2-yl]amino}-2-(pyrazolo[5,1-b][1,3]thiazol-7-yl)pyrimidin-4-yl]carbonyl}piperidin-4-yl)carbamate hydrochloride] | 35 | 290 | 4200 | 1500 | 
10 | CC[C@@H](C)Nc1cc(C(=O)N2CCC(NC(=O)OC)CC2)nc(-c2cnn3ccsc23)n1.Cl [Example 127, Methyl [1-({6-[(2R)-butan-2-ylamino]-2-(pyrazolo[5,1-b][1,3]thiazol-7-yl)pyrimidin-4-yl}carbonyl)piperidin-4-yl]carbamate hydrochloride] |  | 590 |  |  | 38
11 | COC(=O)NC1CCN(C(=O)c2cc(N[C@@H]3CCN(C(C)=O)C3)nc(-c3cnn4ccsc34)n2)CC1 [Example 152, Methyl (1-{[6-{[(3R)-1-acetylpyrrolidin-3-yl]amino}-2-(pyrazolo[5,1-b][1,3]thiazol-7-yl)pyrimidin-4-yl]carbonyl}piperidin-4-yl)carbamate] |  | 2300 | > 10000 | > 10000 | 
12 | C[C@@H](Nc1cc(C(=O)N2CCC(NC(=O)OCCN(C)C)CC2)nc(-c2cnn3ccsc23)n1)C(C)(C)C [Example 102, 2-(Dimethylamino)ethyl (1-{[6-{[(2R)-3,3-dimethylbutan-2-yl]amino}-2-(pyrazolo[5,1-b][1,3]thiazol-7-yl)pyrimidin-4-yl]carbonyl}piperidin-4-yl)carbamate] |  | 24 | 1700 | 1300 | 
13 | CCOc1c(N[C@H](C)C(C)(C)C)nc(-c2cnn3ccsc23)nc1C(=O)N1CCC(NC(=O)OC)CC1 [Example 155, Methyl (1-{[6-{[(2R)-3,3-dimethylbutan-2-yl]amino}-5-ethoxy-2-(pyrazolo[5,1 b][1,3]thiazol 7-yl)pyrimidin-4-yl]carbonyl}piperidin-4-yl)carbamate] |  | 24 | 1400 | 4600 | 
14 | COC(=O)NC1CCN(C(=O)c2cc(N(C)C(C)(C)C)nc(-c3cnn4ccsc34)n2)CC1 [Example 132, Methyl [1-({6-[tert-butyl(methyl)amino]-2-(pyrazolo[5,1-b][1,3]thiazol-7-yl)pyrimidin-4-yl}carbonyl)piperidin-4-yl]carbamate hydrochloride] |  | 790 | > 10000 | > 10000 | 
15 | CCC(CC)Oc1cc(C(=O)N2CCC(NC(=O)OC)CC2)nc(-c2cnn3ccsc23)n1 [Example 108, Methyl (1-{[6-(pentan-3-yloxy)-2-(pyrazolo[5,1-b][1,3]thiazol-7-yl)pyrimidin-4-yl]carbonyl}piperidin-4-yl)carbamate] |  | 200 | > 10000 | 2500 | 
16 | COCCOC(=O)NC1CCN(C(=O)c2cc(N[C@H](C)C3CC3)nc(-c3cnn4ccsc34)n2)CC1 [Example 88, 2-Methoxyethyl (1-{[6-{[(1R)-1-cyclopropylethyl]amino}-2-(pyrazolo[5,1-b][1,3]thiazol-7-yl)pyrimidin-4-yl]carbonyl}piperidin-4-yl)carbamate] |  | 190 | 4100 | 1000 | 

Source: patent US9999622B2, “Pyrazolothiazole compound and medicine comprising same” (NIPPON SHINYAKU CO., LTD., priority 2014, dated 2018)
